Laboratory results reported in patent publication US20250206761A1, “HALOINDOLE MACROCYCLIC COMPOUNDS FOR THE TREATMENT OF CANCER” (Hoffmann-La Roche Inc., priority 2022, published 2025).
Values belong to the compound of their own block, whether it stands above or below them.

What was measured:
[1] = system: phosphorylation of ERK, KRAS G12C in NCJ-H358 cells; experiment: pERK inhibition assay, KRAS G12C; assay type: cell-based, human; details: Homo sapiens, 4 hours
Outline: (§1)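 Read-out is OD450 from a TMB colorimetric cell ELISA using a phospho-ERK-specific antibody and HRP-linked secondary. Compounds were incubated with the cells for 4 hours at 0.5% DMSO before fixation and permeabilization. IC50 values come from 4-parameter concentration-response fitting.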

[2] = system: phosphorylation of ERK, KRAS G12V in SW620; experiment: pERK inhibition assay, KRAS G12V; assay type: cell-based, human; details: Homo sapiens, SW-620, SW620, 4 hours
Outline: as §1

[3] = system: phosphorylation of ERK, KRAS G12D in AGS cells; experiment: pERK inhibition assay, KRAS G12D; assay type: cell-based, human; details: Homo sapiens, 4 hours
Protocol: This assay is to measure the ability of test compounds in inhibiting the phosphorylation of ERK, the downstream signaling of KRAS G12C in NCJ-H358 cells, KRAS G12D in AGS cells, and KRAS G12V in SW620. NCJ-H358 (ATCC-CRL5807) cells, AGS (ATCC-CRL-1739) cells, SW620 (ATCC-CCL-227) cells were all grown and maintained using RPMI-1640 medium (Thermo Fisher Scientific) with 10% fetal bovine serum and 1% penicillin/streptomycin. On the day prior to compound addition, cells were plated in tissue culture-treated 96 well plates (Corning-3699) at a density of 30,000 cell/well, 20,000 cell/well, 30,000 cell/well for NCJ-H358, AGS and SW620 respectively, and allowed for attachment overnight. Diluted compounds were then added in a final concentration of 0.5% DMSO. After 4 hours of incubation, the medium was removed, 100 μL of 4% formaldehyde was added, and the assay plates were incubated at room temperature for 20 minutes. The plates were then washed once with phosphate buffered saline (PBS), and permeabilized with 100 μL of chilled methanol for 10 minutes. Non-specific antibody binding to the plates was blocked using 50 μL 1×BSA blocking buffer (Thermo-37520, 10-fold dilution by Phosphate-Buffered Saline Tween (PBST) for at least 1 hour at room temperature.
The amount of phosphor-ERK was determined using an antibody specific for phosphorylated form of ERK. Primary antibody (pERK, CST-4370, Cell Signaling Technology) was diluted 1:300 in blocking buffer, with 50 μL aliquoted to each well, and incubated overnight at 4′° C. Cells was washed five times for 5 minutes with PBST. Secondary antibody ([…] anti-rabbit IgG, CST-7074, Cell Signaling Technology) was diluted 1:1000 in blocking buffer, and 50 μL was added to each well and incubated 1-2 hrs at room temperature. Cells was washed 5 times for 5 minutes with PBST, 100 μL TMB ELISA substrate (abcam-ab171523) were added and gently shake for 20 minutes. 50 μL stop solution (abcam-ab171529) were added, and then read the signal (OD450) by EnVision.
IC50 was determined by fitting a 4-parameter sigmoidal concentration response model.

[4] = molecular target: KRAS G12V binding to BRAF (Homo sapiens (Human), UniProt P01116+P62937, G12V); experiment: KRAS-BRAF with CYPA (500 nM) interaction assay (TR-FRET), G12V; assay type: biochemical
Sequence of KRAS G12V binding to BRAF (P01116-2 other isoform, or with tags, fused parts or gaps G12V): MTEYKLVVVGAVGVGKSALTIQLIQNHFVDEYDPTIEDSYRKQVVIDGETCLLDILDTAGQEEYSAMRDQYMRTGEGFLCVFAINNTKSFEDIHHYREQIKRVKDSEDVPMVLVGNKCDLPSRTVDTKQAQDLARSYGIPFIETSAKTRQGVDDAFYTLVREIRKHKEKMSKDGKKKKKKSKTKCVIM
Sequence of KRAS G12V binding to BRAF (P62937 whole entry): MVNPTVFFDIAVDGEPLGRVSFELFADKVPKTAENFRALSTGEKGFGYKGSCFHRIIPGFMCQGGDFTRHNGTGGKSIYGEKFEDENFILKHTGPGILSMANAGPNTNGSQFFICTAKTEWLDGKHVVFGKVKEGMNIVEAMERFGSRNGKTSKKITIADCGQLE
Outline: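 A TR-FRET assay measured how compound, in the presence of CYPA, disrupts binding of GMPPNP-loaded 6His-KRAS G12V to BRAF. The buffer contained 25 mM HEPES PH=7.4, 0.002% Tween20, 0.1% BSA, 100 mM NaCl, 5 mM MgCl2 and 10 μM GMPPNP. Compounds ran as a 16-point 3-fold dilution series from 10 μM for 3 hours.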

SW620 (ATCC-CCL-227) = experiment: Cell viability assay, G12V (SW620); assay type: cell-based, human; details: Homo sapiens, SW-620; KRAS cell viability, SW620, 72 hrs, Cell Counting Kit-8
Outline: (§2)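 After overnight attachment, cells received compounds (0.5% DMSO) for 72 hrs; viability was then quantified with CCK-8, reading OD450 minus OD650, and IC50 values were obtained from a 4-parameter concentration-response fit.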

[5] = molecular target: KRAS G12D binding to BRAF (Homo sapiens (Human), UniProt P01116+P62937, G12D); experiment: KRAS-BRAF with CYPA (500 nM) interaction assay (TR-FRET), G12D; assay type: biochemical
Sequence of KRAS G12D binding to BRAF (P01116-2 other isoform, or with tags, fused parts or gaps G12D): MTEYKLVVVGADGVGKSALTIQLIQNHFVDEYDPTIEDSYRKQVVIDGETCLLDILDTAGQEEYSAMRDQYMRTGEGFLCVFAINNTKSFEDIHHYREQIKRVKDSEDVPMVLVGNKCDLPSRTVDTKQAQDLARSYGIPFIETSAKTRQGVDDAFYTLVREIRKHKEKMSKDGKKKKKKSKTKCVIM
Sequence of KRAS G12D binding to BRAF (P62937 whole entry): as the sequence (P62937 whole entry) above

KRAS G12C-BRAF complex = KRAS G12C-BRAF complex (Homo sapiens (Human), UniProt P01116+P62937, G12C); experiment: KRAS-BRAF with CYPA (500 nM) interaction assay (TR-FRET), G12C; assay type: biochemical
Sequence of KRAS G12C-BRAF complex (P01116-2 other isoform, or with tags, fused parts or gaps G12C): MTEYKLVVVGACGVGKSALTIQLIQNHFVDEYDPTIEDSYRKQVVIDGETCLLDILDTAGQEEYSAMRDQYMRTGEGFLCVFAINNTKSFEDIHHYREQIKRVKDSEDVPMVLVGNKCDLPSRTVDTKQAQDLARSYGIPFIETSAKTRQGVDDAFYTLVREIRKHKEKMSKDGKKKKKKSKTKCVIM
Sequence of KRAS G12C-BRAF complex (P62937 whole entry): as the sequence (P62937 whole entry) above

[6] = system: AGS (ATCC-CRL-1739) cells; experiment: Cell viability assay, G12D (AGS); assay type: cell-based, human; details: Homo sapiens, KRAS cell viability, 72 hrs, Cell Counting Kit-8
Outline: as §2

[7] = system: NCI-H358 (ATCC-CRL5807) cells; experiment: Cell viability assay, G12C (NCI-H358); assay type: cell-based, human; details: Homo sapiens; KRAS cell viability, NCI-H358, 72 hrs, Cell Counting Kit-8
Protocol: The purpose of this cellular assay was to determine the effects of test compounds on the proliferation of human cancer cell lines NCI-H358 (ATCC-CRL5807) cells, AGS (ATCC-CRL-1739) cells, SW620 (ATCC-CCL-227) over a 3-day treatment period by quantifying the amount of NADPH present at endpoint using Cell Counting Kit-8.
Cells were seeded at 5,000 cells/well (NCI-H358), 2,000 cells/well (AGS) 2,000 cells/well (SW620) in 96-well assay plates (Corning-3699) and incubated overnight. On the day of the assay, diluted compounds were then added in a final concentration of 0.5% DMSO. After 72 hrs incubation, a tenth of the volume of cell counting kit 8 (Dnjindo-CK04) was added into each well. Read the signal (OD450 minus OD650) using EnVision after 2 hrs incubation. IC50 was determined by fitting a 4-parameter sigmoidal concentration response model.

IC50 [1]: 32 nM
IC50 [2]: 138 nM
IC50 [3]: 114 nM
Structure (SMILES): CO[C@@H](C)c1ncc(N2CCN(C)CC2)cc1-c1c2c3cc(c(C)cc3n1CC(F)(F)F)-c1csc(n1)C[C@H](NC(=O)[C@H](C(C)C)N(C)C(=O)[C@H]1CCN(C(=O)[C@H](F)Cl)C1)C(=O)N1CCC[C@H](N1)C(=O)OCC(C)(C)C2 (atropisomer, axis not shown; (M)) [Example 3, (3S)-1-[(2R)-2-chloro-2-fluoro-acetyl]-N-[(1S)-1-[[(7S,13S)-(20M)-20-[2-[(1S)-1-methoxyethyl]-5-(4-methylpiperazin-1-yl)-3-pyridyl]-17,17,24-trimethyl-8,14-dioxo-21-(2,2,2-trifluoroethyl)-15-oxa-4-thia-9,21,27,28-tetrazapentacyclo[17.5.2.1^2,5.1^9,13.0^22,26]octacosa-1(25),2,5(28),19,22(26),23-hexaen-7-yl]carbamoyl]-2-methyl-propyl]-N-methyl-pyrrolidine-3-carboxamide]

Structure (SMILES): CO[C@@H](C)c1ncc(N2CCN(C)CC2)cc1-c1c2c3c(F)c(ccc3n1CC(F)(F)F)-c1cc(O)cc(c1)C[C@H](NC(=O)[C@H](C(C)C)N(C)C(=O)[C@H]1CCN(C(=O)[C@H](F)Cl)C1)C(=O)N1CCC[C@H](N1)C(=O)OCC(C)(C)C2 (atropisomer, axis not shown; (M)) [Example 27, (3S)-1-[(2R)-2-chloro-2-fluoro-acetyl]-N-[(1S)-1-[[(8S,14S)-26-fluoro-4-hydroxy-(21M)-21-[2-[(1S)-1-methoxyethyl]-5-(4-methylpiperazin-1-yl)-3-pyridyl]-18,18-dimethyl-9,15-dioxo-22-(2,2,2-trifluoroethyl)-16-oxa-10,22,28-triazapentacyclo[18.5.2.1^2,6.1^10,14.0^23,27]nonacosa-1(26),2,4,6(29),20,23(27),24-heptaen-8-yl]carbamoyl]-2-methyl-propyl]-N-methyl-pyrrolidine-3-carboxamide]
IC50 [4]: 3 nM
IC50 [1]: 3 nM
IC50 (SW620 (ATCC-CCL-227)): 31 nM
IC50 [5]: 7 nM
IC50 [2]: 10 nM
IC50 (KRAS G12C-BRAF complex): 2 nM
IC50 [6]: 37 nM
IC50 [3]: 11 nM

Structure (SMILES): CCn1c(-c2cc(N3CCN(C)CC3)cnc2[C@H](C)OC)c2c3cc(c(F)cc31)-c1csc(n1)C[C@H](NC(=O)[C@H](C(C)C)N1CCCC3(CCN(C(=O)[C@H](F)Cl)CC3)C1=O)C(=O)N1CCC[C@H](N1)C(=O)OCC(C)(C)C2 (atropisomer, axis not shown; (M)) [Example 36, (2S)-2-[9-[(2R)-2-chloro-2-fluoro-acetyl]-1-oxo-2,9-diazaspiro[5.5]undecan-2-yl]-N-[(7S,13S)-21-ethyl-24-fluoro-(20M)-20-[2-[(1S)-1-methoxyethyl]-5-(4-methylpiperazin-1-yl)-3-pyridyl]-17,17-dimethyl-8,14-dioxo-15-oxa-4-thia-9,21,27,28-tetrazapentacyclo[17.5.2.1^2,5.1^9,13.0^22,26]octacosa-1(25),2,5(28),19,22(26),23-hexaen-7-yl]-3-methyl-butanamide]
IC50 [4]: > 10000 nM
IC50 [1]: 3 nM
IC50 (SW620 (ATCC-CCL-227)): 132 nM
IC50 [7]: < 1 nM
IC50 [5]: 3940 nM
IC50 [2]: 13 nM
IC50 (KRAS G12C-BRAF complex): 38 nM
IC50 [6]: 30 nM

Structure (SMILES): CCn1c(-c2cc(N3CCN(CC(F)(F)F)CC3)cnc2[C@H](C)OC)c2c3cc(c(F)cc31)-c1csc(n1)C[C@H](NC(=O)[C@H](C(C)C)N1CC[C@@]3(CCN(C(=O)[C@H](F)Cl)C3)C1=O)C(=O)N1CCC[C@H](N1)C(=O)OCC(C)(C)C2 (atropisomer, axis not shown; (M)) [Example 35, (2S)-2-[(5R)-7-[(2R)-2-chloro-2-fluoro-acetyl]-1-oxo-2,7-diazaspiro[4.4]nonan-2-yl]-N-[(7S,13S)-21-ethyl-24-fluoro-(20M)-20-[2-[(1S)-1-methoxyethyl]-5-[4-(2,2,2-trifluoroethyl)piperazin-1-yl]-3-pyridyl]-17,17-dimethyl-8,14-dioxo-15-oxa-4-thia-9,21,27,28-tetrazapentacyclo[17.5.2.1^2,5.1^9,13.0^22,26]octacosa-1(25),2,5(28),19,22(26),23-hexaen-7-yl]-3-methyl-butanamide]
IC50 [4]: > 10000 nM
IC50 [1]: 3 nM
IC50 (SW620 (ATCC-CCL-227)): 3530 nM
IC50 [7]: < 1 nM
IC50 [5]: 3220 nM
IC50 [2]: 50 nM
IC50 (KRAS G12C-BRAF complex): 23 nM
IC50 [6]: 69 nM

Structure (SMILES): CO[C@@H](C)c1ncc(N2CCN(CC(F)(F)F)CC2)cc1-c1c2c3cc(c(F)cc3n1CC(F)(F)F)-c1csc(n1)C[C@H](NC(=O)[C@H](C(C)C)N1CCC3(CCN(C(=O)[C@H](F)Cl)CC3)C1=O)C(=O)N1CCC[C@H](N1)C(=O)OCC(C)(C)C2 (atropisomer, axis not shown; (M)) [Example 47, (2S)-2-[8-[(2R)-2-chloro-2-fluoro-acetyl]-1-oxo-2,8-diazaspiro[4.5]decan-2-yl]-N-[(7S,13S)-24-fluoro-(20M)-20-[2-[(1S)-1-methoxyethyl]-5-[4-(2,2,2-trifluoroethyl)piperazin-1-yl]-3-pyridyl]-17,17-dimethyl-8,14-dioxo-21-(2,2,2-trifluoroethyl)-15-oxa-4-thia-9,21,27,28-tetrazapentacyclo[17.5.2.1^2,5.1^9,13.0^22,26]octacosa-1(25),2,5(28),19,22(26),23-hexaen-7-yl]-3-methyl-butanamide]
IC50 [4]: > 10000 nM
IC50 [1]: 26 nM
IC50 (SW620 (ATCC-CCL-227)): > 5000 nM
IC50 [7]: 30 nM
IC50 [5]: > 10000 nM
IC50 [2]: 176 nM
IC50 (KRAS G12C-BRAF complex): 79 nM
IC50 [6]: > 5000 nM
